Assay [1] concerns Ts65Dn mice. Put plainly: Long-term potentiation (LTP) in the dentate gyrus of Ts65Dn mice (paper Examples 1 and 2). The assay is classed as in vivo, mouse. The following applies: about 1 month after cessation of drug treatment. From the text:
Since the ability of animals to learn and remember is thought to be encoded at the synaptic level, and involves the ability of synapses to undergo long-term changes in synapse strength, long-term potentiation (LTP) in the dentate gyrus may be evaluated.

The subject of assay [2] is Ts65Dn mice. Put plainly: Novel object recognition assay (Discrimination Index) in Ts65Dn mice, model of Down syndrome. The assay is classed as in vivo, mouse. Here is the method: Following baseline determinations and group assignments, WT and Ts65Dn mice received intraperitoneal (i.p.) injections once/day (08:00) for the two-week duration of the drug treatment regimen (FIG. 1). Drugs were dissolved in physiological saline. Two drops of Tween 80 were used to facilitate solution formation for flumazenil. Picrotoxin was initially made up at 50× concentration in 20% ethanol and then diluted down to a […] solution with 0.4% ETOH in saline. Doses of drugs were based on previous behavioral research in mice (1 mg/kg for PTX and 10 mg/kg for flumazenil). Injections were given in a volume of 10 ml/kg. A vehicle control was run along side the treatment groups (0.4% ETOH in saline).
FIG. 1 graphically depicts the protocol. After habituation to the animal facility, mice were tested for baseline behaviors in the open-field locomotor assay (LMA)(30 min session) and the novel object recognition assay. Primary experimental groups were divided by genotype (Ts65Dn mice and wild-type control littermates). These two groups were further divided into drug treatments (vehicle, PTX and flumazenil) with a targeted n-size of 8 mice/group (24 WT and 24 Ts65Dn mice total). The group assignments were made in a semi-random process due to constraints in animal availability (staggered shipping) and choice of initial treatment groups (e-mail documentation between Bilsky laboratory and Cypress Bioscience on file). Daily morning injections began on Day 1 and went through the morning of Day 14. On Days 7/8 and 14/15 (13:00) mice were tested in the behavioral assay. Mice were kept for an additional two weeks and re-tested on Days 21/22 and 28/29 to assess the duration of the drug treatment effect.
The novel object recognition task is based on the innate tendency of rodents to differentially explore novel objects over familiar ones. The task is well validated for evaluating rodent memory and the effects of drug treatments on learning/memory performance.
Mice were trained and tested once per week, each experimental session separated by a one-week interval. Mice were submitted to daily handling sessions, and given an opportunity to habituate to an open field arena (48 cm×48 cm wide×25 cm), where they were exposed to two different objects (complex protocol), during a 5-minute training session. Objects were made from various non-porous materials that differ in shape and color. Mice were unable to climb onto the objects and the objects were generally consistent in height and volume, and were roughly symmetrical on a horizontal plane. Objects were positioned in two corners of the apparatus. To control for odor cues, the open field arena and the objects are thoroughly cleaned with 90% ethanol, dried, and ventilated for a few minutes between mice.
A 5-minute testing session was conducted 24 h after training. Here, the mice were presented with the object they had explored the previous day, and a new item (the objects being alternatively positioned in one corner or another in a balanced fashion within a given week, and from one week to another). […]

The results in this text go back to patent US20090270373A1, “TREATMENT OF DOWN SYNDROM WITH BENZODIAZEPINE RECEPTOR ANTAGONISTS” (Cypress Biosciences, Inc., priority 2008, published 2009).

SMILES strings stand for the structures.

`CCOC(=O)c1ncn2c1CN(C)C(=O)c1cc(F)ccc1-2` [flumazenil, 8-fluoro-5,6-dihydro-5-methyl-6-oxo-4H-imidazo[1,5-a]benzodiazepine-3-carboxylic acid ethyl ester]: the “LTP in the dentate gyrus” value in assay [1] is “Normalized LTP”. Further, the “Discrimination Index (DI)” value in assay [2] (Week 1 of drug therapy, PTX 1 mg/kg, flumazenil 10 mg/kg i.p.) is listed as “positive effects”; in assay [2] (Week 2 of drug therapy), “positive effects”. For the same compound, in assay [2] (flumazenil 10 mg/kg i.p., conclusion), the “effect in the object recognition assay as compared to vehicle” value is on record as “beneficial effect”.
